The values that follow come from US4269843A, “N-Sec-alkyl analogs of norcodeine and normorphine and analgesic compositions and methods employing the normorphine derivatives” (priority 1980, dated 1981).

SMILES strings stand for the structures.

For data set [1] the following is noted: cited from earlier work; for analgesic / agonist activity (in words): literature.
For data set [2] the following is noted: literature; cited from earlier work.
Data set [3] relates to mice. The data set is described as follows: Mouse Jump Physical Dependence Assay. The data set is classed as in vivo. To be noted: for Total Number Mice Affected (Jumped): i.p., 30 min; for number of mice jumping / withdrawal symptoms (in words): Naloxone 100 mg/kg on day 4, 30 minutes. From the text: (§1) Using mice, the compounds of this invention were subjected to the Tail Flick Analgesic Assay, the Writhing Analgesic Assay, the Straub Tail Antagonist Assay and the Mouse Jump Physical Dependence Assay, said assays being described in the literature as follows:
Saelens, J. K., Granat, F. R. and Sawyer, W. K. Arch. int. Pharmacodyn 190, 213-218 (1971).
Using mice, tests were made to determine the physical dependence capacity of compounds 7(S) 7(R) and 9 as measured by the Mouse Jump Test, this being a simple screening method to estimate the physical dependence capacity of analgesics. In this mouse jumping test, the mice are injected (i.p.) 5× on day 1 with gradually increasing dosages ranging from 8 to 100 mg/kg of body weight. On days 2 and 3 the mice (in all except one test) were given 100 mg/kg 4×. In the one test, dosage was raised to 200-300 mg/kg on day 2 and to 300 mg/kg on day 3. On day 4 all the mice received one shot (100 mg/kg) of the antogonist Naloxone. Following this all mice were caged for 30 minutes and a record was made of the number of mice jumping during this interval.

In data set [4] the test system is mice. The data set is described as follows: Straub Tail Antagonist Assay (morphine-injected mice). The data set is classed as in vivo, mouse. To be noted: for antagonist properties (in words): summary statement; for ED50: Mus musculus, dose which abolishes the response in 50% of the test mice, read-out: Inhibition of Straub tail response (ED50).
From the text: as §1
Straub Tail Antagonist Assay
Blumberg, H. and Dayton, H. B. In Narcotic antagonists Advances in Biochemical Psychopharmacology, Vol. 8, Ed., Brande, M. C., Harris L. S.

Data set [5] deals with mice. Nature of the data set: animal or person. The data set is classed as in vivo, mouse. Particulars: for analgesic activity (in words): summary statement, mice tail flick and writhing assays; for ED50: Mus musculus, mice, dose [micromoles per kg of body weight] which gives a group mean response time of 5 seconds, read-out: Tail Flick (ED50).
From the text: as §1
Tail Flick Analgesic Assay
D'Amour, F. E and Smith, D. L., J. Pharmacol. Exp. Therap. 72, 74-79 (1941)
Howes, J. F., Harris, L. S., Dewey, W. L. and Voyda, C. A., J. Pharmacol. Exp. Therap. 169, 23-28 (1969)
Dewey, W. L., Harris, L. S., Howes, J. F. and Nuite, J. A., J. Pharmacol. Exp. Therap. 175, 435-442 (1970)
The Tail Flick Analgesic Assay represents a test procedure in which heat from an intense light source is focused on the mouse's tail. When pain is detected by the mouse the tail gives a characteristic flicking response. In untreated controls the intervals from exposure to flick is about 2 seconds, while when using an effective analgesic the interval from exposure to flick is usually about 6 to 10 seconds. The ED50 values given in Table 1 below represent the dose [micromoles (μM) per kg of body weight] which gives a group mean response time of 5 seconds.
(Writhing tests count abdominal constrictions after an irritant is injected.)

The test system of data set [6] is mice. The data set is described as follows: animal or person. The data set is classed as in vivo. To be noted: Mus musculus, ip, phenylquinone i.p., dose which eliminates any writhing in 50% of the treated mice.
From the text: as §1
Blumberg, H., Wolf, P. S. and Dayton, H. B., Proc. soc. Exper. Biol. Med., 118, 763 (1965).
The ED50 values given in Table 1 below represent the dose (μM/kg) which eliminates any such writhing in 50% of the treated mice.

The mark [7] stands for this setting: 8-100 mg/kg day 1, 100 mg/kg days 2 and 3, 100 mg/kg Naloxone day 4, mice tested: 7(S) 20, 7(R) 12, 9 10, Morphine 10, Nalline 12.

Consider `COc1ccc2c3c1O[C@H]1[C@@H](O)C=C[C@H]4[C@@H](C2)N(C(C)C)CC[C@@]341` [N-isopropyl-norcodeine], for which the “analgesic / agonist activity (in words)” value in data set [1] was “inactive”.
Turning to `CC(C)=CCN1CCC2(C)c3cc(O)ccc3CC1C2C` (stereo not shown) [pentazocine], the “antagonist activity (in words)” value in data set [2] is on record as “dual agonist-antagonist”. The “analgesic potency relative to morphine” value in data set [1] (fraction of the potency of morphine) is “about one-fourth”.
Regarding `CN1CC[C@]23c4c5ccc(O)c4O[C@H]2[C@@H](O)C=C[C@H]3[C@H]1C5` [Morphine], the “Total Number Mice Affected (Jumped)” value in data set [3] (setting [7]) worked out at 10. In addition, the “number of mice jumping / withdrawal symptoms (in words)” value in data set [3] is “all of the mice showed withdrawal symptoms”. Also, the “Inhibition of Straub tail response (result in words)” value in data set [4] (mice injected with morphine) was “No inhibition”.
Regarding `CCC(C)N1CC[C@]23c4c5ccc(O)c4O[C@H]2[C@@H](O)C=C[C@H]3[C@H]1C5` (stereo partly shown) [Compound 7, N-2-butylnormorphine], in data set [5], the “analgesic activity (in words)” value was “analgesic activities similar to morphine”. Also, in data set [4], the “antagonist properties (in words)” value is recorded as “antagonist properties indicative of low addiction potential”.
`CC[C@H](C)N1CC[C@]23c4c5ccc(O)c4O[C@H]2[C@@H](O)C=C[C@H]3[C@H]1C5` [7(S), N-2-butylnormorphine]: the “Total Number Mice Affected (Jumped)” value in data set [3] (setting [7]) came to 2; in data set [3] (8-100 mg/kg day 1, 200-300 mg/kg day 2, 300 mg/kg day 3, 100 mg/kg Naloxone day 4, 10 mice tested), 1. In addition, the “number of mice jumping / withdrawal symptoms (in words)” value in data set [3] is on record as “very small”. The figures for the ED50 in data set [6], in data set [5] and in data set [4] (mice injected with morphine) were 11 µmol/kg, 13.4 µmol/kg and 7.4 µmol/kg, respectively.
On to `CCC(CC)N1CC[C@]23c4c5ccc(O)c4O[C@H]2[C@@H](O)C=C[C@H]3[C@H]1C5` [Compound 10, N-3-pentylnormorphine], for which the ED50 (commonly the dose at which the effect has come halfway, by size or by number of responders) in data set [6] is 2.3 µmol/kg; in data set [5], 19.9 µmol/kg; in data set [4] (mice injected with morphine), 17.2 µmol/kg. The “analgesic activity (in words)” value in data set [5] was “analgesic activities similar to morphine”. Besides, in data set [4], the “antagonist properties (in words)” value is recorded as “antagonist properties indicative of low addiction potential”.
Consider `C=C[C@@H](C)N1CC[C@]23c4c5ccc(O)c4O[C@H]2[C@@H](O)C=C[C@H]3[C@H]1C5` [8(R), N-α-methylallylnormorphine], for which the ED50 in data set [6] is 13 µmol/kg; in data set [5], 44.5 µmol/kg; in data set [4] (mice injected with morphine), 11 µmol/kg.
Consider `CC(C1CC1)N1CC[C@]23c4c5ccc(O)c4O[C@H]2[C@@H](O)C=C[C@H]3[C@H]1C5` (stereo partly drawn) [Compound 9, N-α-methylcyclopropylmethylnormorphine], for which the “Total Number Mice Affected (Jumped)” value in data set [3] (setting [7]) was found to be 1. Also, the “number of mice jumping / withdrawal symptoms (in words)” value in data set [3] is recorded as “very small”. For the same compound, the ED50 worked out at 0.69 µmol/kg in data set [6], 12.4 µmol/kg in data set [5] and 4.5 µmol/kg in data set [4] (mice injected with morphine). Also, the “analgesic activity (in words)” value in data set [5] is recorded as “analgesic activities similar to morphine”. For the same compound, the “antagonist properties (in words)” value in data set [4] was “antagonist properties indicative of low addiction potential”.
For the compound `CCCCCN1CC[C@]23c4c5ccc(O)c4O[C@H]2[C@@H](O)C=C[C@H]3[C@H]1C5` [N-amyl-, N-amylnormorphine], in data set [2], the “antagonist activity (in words)” value is “devoid of antagonist properties”. Besides, the “analgesic / agonist activity (in words)” value in data set [1] is “potent analgesic activity”.
Turning to `C=CC(C)N1CC[C@]23c4c5ccc(O)c4O[C@H]2[C@@H](O)C=C[C@H]3[C@H]1C5` (stereo partly drawn) [Compound 8, N-α-methylallylnormorphine], the “analgesic activity (in words)” value in data set [5] is “analgesic activities similar to morphine”. The “antagonist properties (in words)” value in data set [4] is listed as “antagonist properties indicative of low addiction potential”.
For `CCCCN1CC[C@]23c4c5ccc(O)c4O[C@H]2[C@@H](O)C=C[C@H]3[C@H]1C5` [N-butyl-, N-butylnormorphine], in data set [2], the “antagonist activity (in words)” value is recorded as “devoid of antagonist properties”. The “analgesic / agonist activity (in words)” value in data set [1] is reported as “potent analgesic activity”.
`CC(C)N1CC[C@]23c4c5ccc(O)c4O[C@H]2[C@@H](O)C=C[C@H]3[C@H]1C5` [N-isopropyl-normorphine]: the “antagonist activity (in words)” value in data set [2] is “little, if any, antagonist qualities”. Moreover, the “analgesic / agonist activity (in words)” value in data set [1] is recorded as “not a good agonist”.
With `CC[C@@H](C)N1CC[C@]23c4c5ccc(O)c4O[C@H]2[C@@H](O)C=C[C@H]3[C@H]1C5` [7(R), N-2-butylnormorphine], the “Total Number Mice Affected (Jumped)” value in data set [3] (setting [7]) amounted to 1. In data set [3], the “number of mice jumping / withdrawal symptoms (in words)” value is reported as “very small”. Besides, the ED50 is 6.4 µmol/kg in data set [6], 19 µmol/kg in data set [5] and 16.2 µmol/kg in data set [4] (mice injected with morphine).
Regarding `C=CCN1CC[C@]23c4c5ccc(O)c4O[C@H]2[C@@H](O)C=C[C@H]3[C@H]1C5` [Nalorphine, N-allylnormorphine, reference compound], the “Total Number Mice Affected (Jumped)” value in data set [3] (setting [7]) is 0-3. Also, the “number of mice jumping / withdrawal symptoms (in words)” value in data set [3] was “very small”. Further, the median effective dose (ED50) in data set [4] (mice injected with morphine) came out at 1 µmol/kg.
As for `CCCCCCN1CC[C@]23c4c5ccc(O)c4O[C@H]2[C@@H](O)C=C[C@H]3[C@H]1C5` [N-hexylnormorphine], the “antagonist activity (in words)” value in data set [2] is given as “devoid of antagonist properties”. The “analgesic / agonist activity (in words)” value in data set [1] was “potent analgesic activity”.
`CCCN1CC[C@]23c4c5ccc(O)c4O[C@H]2[C@@H](O)C=C[C@H]3[C@H]1C5` [N-propyl normorphine]: the “antagonist activity (in words)” value in data set [2] is listed as “morphine antagonists only”.
Take `CC(C)CN1CC[C@]23c4c5ccc(O)c4O[C@H]2[C@@H](O)C=C[C@H]3[C@H]1C5` [N-isobutylnormorphine]: in data set [2], the “antagonist activity (in words)” value is on record as “morphine antagonists only”.
